In data set [1] the target is T1, Free fatty acid receptor 1 (Homo sapiens, UniProt O14842). Briefly: Agonist activity at human GPR40 expressed in CHO cells incubated for 60 mins by FLIPR based Ca2+ mobilization assay. It counts as functional, cell-based. Background: A change in cytosolic calcium serves as a functional read-out for many receptors and channels.
The target in data set [2] is T1, Free fatty acid receptor 1. As to the kind of experiment: Agonist activity at human GPR40 expressed in CHO cells incubated for 60 mins by FLIPR based Ca2+ mobilization assay relative to gamma-linolenic acid. As to conditions: filed as agonist. The data set is classed as functional, cell-based.
The target of data set [3] is T1, Free fatty acid receptor 1. Briefly: Binding affinity to human GPR40 expressed in CHO cells by LC-MS analysis. The data set is classed as cell-based.
Data set [4] has as its target T1, Free fatty acid receptor 1. As to the kind of experiment: Agonist activity at human GPR40 expressed in CHO cells at 10 uM incubated for 60 mins by FLIPR based Ca2+ mobilization assay relative to gamma-linolenic acid. It counts as functional, cell-based.
The nature of data set [5]: Cytotoxicity in human HepG2 cells assessed as intracellular ATP content level at 30 uM by ATPlite-M assay relative to control. It counts as cell-based. As to conditions: time 1 day, read-out: Activity.
In a further data set the test system is HepG2. Briefly: Cytotoxicity in human HepG2 cells assessed as caspase-3/7 activity level at 30 uM by Caspase-GloTM 3/7 assay relative to staurosporine. The data set is classed as cell-based. To be noted: hepg2, 24 h, time 1 day.
Data set [6] can be described thus: AUC (0 to 24 hrs) in diabetic patient at 50 mg, po. It counts as ADME. Also noted: dose 50 mg, time < 24 hr, route oral. As to conditions: human, in vivo.
Data set [7] can be described thus: Cmax in Wistar Kyoto N-STZ-1.5 rat model of streptozotocin-induced diabetes at 0.1 to 1 mg/kg, po followed by glucose challenge during 2-week-dosing study. It counts as ADME, organism-based. Also noted: time 2 weeks, dose 0.1-1. To be noted: in vivo.
The nature of data set [8]: AUC (0 to 24 hrs) in Wistar Kyoto N-STZ-1.5 rat model of streptozotocin-induced diabetes at 0.1 to 1 mg/kg, po followed by glucose challenge during 2-week-dosing study. It counts as ADME, organism-based. Also noted: time 2 weeks, dose 0.1-1. To be noted: in vivo.
A short description of data set [9]: Cmax in diabetic patient at 50 mg, po. It counts as ADME. Also noted: dose 50 mg, route oral. To be noted: human, in vivo.
Data set [10] has as its target T1, Free fatty acid receptor 1. Briefly: Binding affinity to human GPR40 expressed in CHO cells in presence of 10 and 100 nM […] by LC-MS analysis based competitive binding assay. It counts as cell-based. To be noted: filed as agonist, dose nM 10-100.
Data set [11] has as its target T1, Free fatty acid receptor 1. Briefly: Binding affinity to human GPR40 expressed in CHO cells assessed as formation of protein-ternary complex by LC-MS analysis. The data set is classed as cell-based. As to conditions: filed as agonist.
Data set [12] relates to Rattus norvegicus. As to the kind of experiment: Suppression of glucose tolerance in Wistar Kyoto N-STZ-1.5 rat model of streptozotocin-induced diabetes at 10 mg/kg, po followed by glucose challenge. It counts as functional, organism-based.
Data set [13] concerns Rattus norvegicus. Briefly: Stimulation of insulin secretion in Wistar Kyoto N-STZ-1.5 rat model of streptozotocin-induced diabetes at 10 mg/kg, po followed by glucose challenge by ELISA. It counts as functional, organism-based. (ELISA stands for enzyme-linked immunosorbent assay.)
Data set [14] deals with T1, Free fatty acid receptor 1. As to the kind of experiment: Agonist activity at human GPR40 expressed in CHO cells at 1 uM incubated for 60 mins by FLIPR based Ca2+ mobilization assay relative to gamma-linolenic acid. It counts as functional, cell-based.

The source made the active and inactive calls. The calls are words filed in the database; no cut-off is given here.

T1 sequence (O14842 whole entry): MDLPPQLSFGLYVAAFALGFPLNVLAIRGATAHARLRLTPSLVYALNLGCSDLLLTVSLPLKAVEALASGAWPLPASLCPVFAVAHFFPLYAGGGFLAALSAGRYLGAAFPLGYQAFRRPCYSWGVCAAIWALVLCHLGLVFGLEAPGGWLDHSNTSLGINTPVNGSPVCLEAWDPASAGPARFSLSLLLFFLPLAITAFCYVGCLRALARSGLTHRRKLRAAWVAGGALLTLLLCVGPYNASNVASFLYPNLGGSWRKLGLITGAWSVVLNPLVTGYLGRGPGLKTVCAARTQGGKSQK

Usually EC50 stands for the midpoint of the concentration-response curve. Read a high EC50 as a need for much substance. Usually Emax stands for the greatest response seen or fitted, relative to the assay's reference. A word on the Kd: it is a measure of binding affinity in units of concentration. Low readings indicate tighter binding, high ones weaker binding. Consider `COc1ccc(F)c(-c2ccc(COc3cccc([C@@H](CC(=O)O)C4CC4)c3)cc2C2=CCCC2(C)C)c1`, for which the EC50 in [1] was found to be 150 nM. Besides, the Emax in data set [2] was 182%. Further, the Kd in data set [3] was determined as 5 nM.

`COc1ccc(CCCC(C)(C)C)c(N2CCC(Oc3cccc(C(CC(=O)O)C4CC4)c3)CC2)c1` (centres undefined): in data set [4], the Activity was 22%.

For `COc1ccc(C(=O)N(C)c2ccccn2)c(N2CCC(COc3cccc(C(CC(=O)O)C4CC4)c3)CC2)c1` (centres undefined), the response in [1] was half-maximal at 180 nM (EC50). Moreover, the viability at 24 h, 30 µM in data set [5] was 83.6%. Further, the Activity in the data set on HepG2 is listed as -1.1%. In [2], the Emax stood at 105%.

Compound `COc1ccc(F)c(N2CCC(COc3cccc(C(CC(=O)O)C4CC4)c3)CC2)c1` (centres undefined) registered an EC50 in data set [1] of 670 nM. The viability at 24 h, 30 µM in data set [5] was determined as 72.7%. Further, in the data set on HepG2, the Activity is reported as -1.7%. In addition, in [2], the Emax came to 114%.

`Cc1cc(OCCCS(C)(=O)=O)cc(C)c1-c1cccc(COc2ccc3c(c2)OC[C@H]3CC(=O)O)c1`: in data set [6], the AUC(0-t) at 24 h was 100000 ng·h/mL. Also, the figures for the Cmax in data set [7] and in data set [9] were 39.8 ng/mL and 5300 ng/mL, respectively. Further, in data set [8], the AUC(0-t) at 336 h amounted to 255 ng·h/mL.

As to `COc1ccc(C(=O)N(CC(C)(C)C)c2cccc(C)n2)c(N2CCC(COc3cccc(C(CC(=O)O)C4CC4)c3)CC2)c1` (centres undefined), in data set [1], the midpoint of the response, the EC50, lay at 17 nM. The compound further displayed an Emax in [2] of 109%.

Regarding `CCOC(CC(=O)O)c1cccc(OCC2CCN(c3cc(OC)ccc3C(=O)N(CC(C)(C)C)c3cccc(C)n3)CC2)c1` (centres undefined), in data set [1], the EC50 came out at 74 nM. For the same compound, the Emax in data set [2] stood at 104%.

The compound `COc1ccc(C(=O)N(CC(C)(C)C)c2ccccn2)c(N2CCC(COc3cccc(C(CC(=O)O)C4CC4)c3)CC2)c1` (centres undefined) returned an EC50 in data set [1] of 26 nM. Moreover, the Emax in data set [2] worked out at 110%.

Compound `COc1ccc(C(=O)N(CC(C)(C)C)c2cccc(C)n2)c(N2CCC(COc3cccc(C(CC(=O)O)OC)c3)CC2)c1` (centres undefined) showed an EC50 in data set [1] of 62 nM. The Emax in data set [2] was determined as 109%.

`COc1ccc(C(=O)N(CC(C)(C)C)c2cccc(C)n2)c(N2CCC(COc3cccc(C4(CC(=O)O)COC4)c3)CC2)c1` returned an EC50 in data set [1] of 840 nM. This compound gave an Emax in [2] of 115%.

`COc1ccc(CCCC(C)(C)C)c(N2CCC(COc3cccc(C(CC(=O)O)C4CC4)c3)CC2)c1` (centres undefined): the EC50 in data set [1] was 11 nM. The viability at 24 h, 30 µM in data set [5] was determined as 0.1%. Moreover, the outcome in data set [10] and in [11] was Active. In addition, the Activity in the data set with HepG2 amounted to 26%. In data set [2], the Emax stood at 106%.

For the compound `COc1ccc(C(=O)N(CC(C)(C)OC)c2ccccn2)c(N2CCC(COc3cccc(C(CC(=O)O)C4CC4)c3)CC2)c1` (centres undefined), in data set [1], the EC50 came out at 100 nM. The Emax in [2] was determined as 105%.

`COc1ccc(C(=O)N(C)CC(C)(C)C)c(N2CCC(COc3cccc(C(CC(=O)O)C4CC4)c3)CC2)c1` (centres undefined) showed an EC50 in data set [1] of 100 nM. Also, in data set [5], the viability at 24 h, 30 µM was 82.2%. For the same compound, the Activity in the data set with HepG2 is recorded as 6.6%. In [2], this compound gave an Emax of 107%.

`COc1ccc(CCCC(C)(C)C)c(-c2ccc(COc3cccc(C(CC(=O)O)C4CC4)c3)cc2)c1` (centres undefined) came in with an EC50 in [1] of 410 nM. In [2], this compound showed an Emax of 105%.

Compound `COc1ccc(C(=O)N(C)c2ccccc2)c(N2CCC(COc3cccc(C(CC(=O)O)C4CC4)c3)CC2)c1` (centres undefined) displayed an EC50 in data set [1] of 140 nM. In addition, the viability at 24 h, 30 µM in data set [5] stood at 79.3%. In addition, the Activity with HepG2 stood at 2.8%. The Emax in [2] stood at 101%.

In turn, `COc1ccc(C)c(N2CCC(COc3cccc(C(CC(=O)O)C4CC4)c3)CC2)c1` (centres undefined) displayed an EC50 in [1] of 270 nM. For the same compound, the viability at 24 h, 30 µM in data set [5] was 67.4%. Further, the Activity with HepG2 was 8.3%. Further, the Emax in data set [2] amounted to 113%.

Turning to `COc1ccc(C(=O)N(CC(C)(C)C)c2cccc(C)n2)c(N2CCC(COc3cccc(C(CC(=O)O)C4CC4)n3)CC2)c1` (centres undefined), in data set [4], the Activity worked out at 39%.

Regarding `COc1ccc(C(=O)N(CC(C)C)c2ccccn2)c(N2CCC(COc3cccc(C(CC(=O)O)C4CC4)c3)CC2)c1` (centres undefined), a half-maximal response in data set [1] (EC50) required 29 nM. In addition, in data set [2], the Emax was determined as 107%.

`COc1ccc(CCC(C)(C)C)c(N2CCC(COc3cccc(C(CC(=O)O)C4CC4)c3)CC2)c1` (centres undefined) yielded an EC50 in [1] of 34 nM. In addition, the viability at 24 h, 30 µM in [5] was determined as 0.1%. For the same compound, in the data set on HepG2, the Activity worked out at 67.3%. This compound also came in with an Emax in data set [2] of 110%.

As for `N[C@@H](CC(=O)N1CCn2c(nnc2C(F)(F)F)C1)Cc1cc(F)c(F)cc1F`, the outcome with Rattus norvegicus [12] and with Rattus norvegicus [13] was Active.

`COc1ccc(C(C)C)c(N2CCC(COc3cccc(C(CC(=O)O)C4CC4)c3)CC2)c1` (centres undefined) registered an EC50 in data set [1] of 120 nM. The viability at 24 h, 30 µM in data set [5] came to 0.1%. For the same compound, the Activity with HepG2 was 43.4%. In addition, the Emax in data set [2] came to 117%.

In data set [1], `COc1ccc(CN(C)CC(C)C)c(N2CCC(COc3cccc(C(CC(=O)O)C4CC4)c3)CC2)c1` (centres undefined) showed an EC50 of 1000 nM. Also, the viability at 24 h, 30 µM in [5] is 80.7%. For the same compound, the Activity with HepG2 was -1.1%. The same compound registered a maximal effect (Emax) in [2] of 110%.

The compound `COc1ccc(CCCC(C)(C)C)c(N2CC(COc3cccc(C(CC(=O)O)C4CC4)c3)C2)c1` (centres undefined) showed an EC50 in [1] of 250 nM.

Take `COc1ccc(C(=O)N(CC(C)(C)C#N)c2ccccn2)c(N2CCC(COc3cccc(C(CC(=O)O)C4CC4)c3)CC2)c1` (centres undefined): the midpoint of the response in [1], the EC50, lay at 160 nM. The Emax in data set [2] stood at 108%.

Regarding `COc1cccc(N2CCC(COc3cccc(C(CC(=O)O)C4CC4)c3)CC2)c1` (centres undefined), the viability at 24 h, 30 µM in [5] stood at 92%. In addition, the Activity was 91% in data set [4] (filed as agonist), -1.1% in the data set with HepG2 and 8% in data set [14].

In turn, `COc1ccc(CCC(C)(C)O)c(N2CCC(COc3cccc(C(CC(=O)O)C4CC4)c3)CC2)c1` (centres undefined) displayed an EC50 in [1] of 970 nM. For the same compound, in data set [5], the viability at 24 h, 30 µM turned out to be 76.6%. Moreover, the Activity in the data set with HepG2 is 0.1%. In data set [2], this compound registered an Emax of 109%.

In [1], `COc1ccc(C(=O)N(CC(C)(C)C)c2cccc(C)n2)c(N2CCC(COc3cc([C@H](CC(=O)O)C4CC4)ccn3)CC2)c1` came in with an EC50 of 83 nM. In data set [2], this compound displayed an Emax of 109%.

With `COc1ccc(F)c(-c2ccc(COc3cccc([C@@H](CC(=O)O)C4CC4)c3)nc2CC(C)(C)C)c1`, a half-maximal effect in data set [1] (EC50) was put at 150 nM. For the same compound, in data set [2], the Emax was found to be 66%.

`COc1ccc(C(=O)N(CC(C)(C)C)c2cccc(C)n2)c(N2CCC(COc3cc(C(CC(=O)O)C4CC4)ccn3)CC2)c1` (centres undefined): the EC50 in [1] was 17 nM. In addition, the Emax in data set [2] was found to be 112%.

With `COCC(CC(=O)O)c1cccc(OCC2CCN(c3cc(OC)ccc3C(=O)N(CC(C)(C)C)c3cccc(C)n3)CC2)c1` (centres undefined), in [1], the EC50 came out at 120 nM. For the same compound, the Emax in [2] was 104%.
